Results taken from ChEMBL document CHEMBL3286198, “Targeting integrins αvβ3 and α5β1 with new β-lactam derivatives” (Eur J Med Chem, 2014).
Activity calls are given as the source filed them. The calls are words filed in the database; no cut-off is given here.

Key:
Assay type in all cases: cell-based
Integrin alpha-5/beta-1 [1] = biological target: T1, Integrin alpha-5/beta-1 (Homo sapiens, UniProt P05556+P08648); test: Agonist activity at alpha5beta1 integrin in human K562 cells assessed as increase of fibronectin-mediated cell adhesion at 10 ug/ml after 30 mins by fluorescence assay in presence of neutralizing antibody of beta1
Integrin alpha-V/beta-3 [2] = biological target: T2, Integrin alpha-V/beta-3 (Homo sapiens, UniProt P05106+P06756); test: Agonist activity at alphavbeta3 integrin in human SK-MEL-24 cells assessed as increase of fibronectin-mediated cell adhesion at 10 ug/ml after 30 mins by fluorescence assay in presence of neutralizing antibodies of alphav
[3] = biological target: Integrin alpha-IIb/beta-3 (Homo sapiens) (UniProt P05106+P08514); test: Agonist activity at alpha2bbeta3 integrin in PMA-stimulated human K562 cells assessed as increase of cell adhesion after 30 mins by flow cytometry in presence of tirofiban
Integrin alpha-5/beta-1 [4] = biological target: T1, Integrin alpha-5/beta-1; test: Agonist activity at alpha5beta1 integrin in human K562 cells assessed as increase of fibronectin-mediated cell adhesion after 30 mins by fluorescence assay
Integrin alpha-V/beta-3 [5] = biological target: T2, Integrin alpha-V/beta-3; test: Agonist activity at alphavbeta3 integrin in human SK-MEL-24 cells assessed as increase of fibronectin-mediated cell adhesion after 30 mins by fluorescence assay
K562 = test: Selectivity ratio of EC50 for alphavbeta3 integrin in human SK-MEL-24 cells to EC50 for alpha5beta1 integrin in human K562 cells
Integrin alpha-4/beta-1 = Integrin alpha-4/beta-1 (Homo sapiens, UniProt P05556+P13612); test: Antagonist activity at alpha4beta1 integrin in human Jurkat E6.1 cells assessed as inhibition of VCAM1-mediated cell adhesion after 30 mins by fluorescence assay
Integrin alpha-4/beta-1, sequence (P05556 whole entry): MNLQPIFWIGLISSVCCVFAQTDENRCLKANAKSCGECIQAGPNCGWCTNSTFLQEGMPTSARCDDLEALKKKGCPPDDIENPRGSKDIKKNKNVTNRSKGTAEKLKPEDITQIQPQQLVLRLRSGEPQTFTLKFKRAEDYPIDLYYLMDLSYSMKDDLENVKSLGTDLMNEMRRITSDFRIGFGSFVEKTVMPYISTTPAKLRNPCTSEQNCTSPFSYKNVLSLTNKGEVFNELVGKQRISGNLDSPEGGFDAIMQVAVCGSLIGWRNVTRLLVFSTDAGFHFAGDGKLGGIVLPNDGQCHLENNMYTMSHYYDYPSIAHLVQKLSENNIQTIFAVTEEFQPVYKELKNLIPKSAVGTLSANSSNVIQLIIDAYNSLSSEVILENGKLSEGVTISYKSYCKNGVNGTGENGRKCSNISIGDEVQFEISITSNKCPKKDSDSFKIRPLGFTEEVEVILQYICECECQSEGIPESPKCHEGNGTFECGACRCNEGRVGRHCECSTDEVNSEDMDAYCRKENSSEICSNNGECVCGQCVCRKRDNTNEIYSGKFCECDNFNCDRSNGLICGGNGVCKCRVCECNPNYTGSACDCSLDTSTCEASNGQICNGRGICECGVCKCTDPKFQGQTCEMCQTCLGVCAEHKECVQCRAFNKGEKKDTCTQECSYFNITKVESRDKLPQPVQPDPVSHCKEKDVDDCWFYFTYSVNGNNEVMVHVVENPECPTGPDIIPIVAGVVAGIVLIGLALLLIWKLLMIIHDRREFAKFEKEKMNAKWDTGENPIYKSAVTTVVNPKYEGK
Integrin alpha-4/beta-1, sequence (P13612 whole entry): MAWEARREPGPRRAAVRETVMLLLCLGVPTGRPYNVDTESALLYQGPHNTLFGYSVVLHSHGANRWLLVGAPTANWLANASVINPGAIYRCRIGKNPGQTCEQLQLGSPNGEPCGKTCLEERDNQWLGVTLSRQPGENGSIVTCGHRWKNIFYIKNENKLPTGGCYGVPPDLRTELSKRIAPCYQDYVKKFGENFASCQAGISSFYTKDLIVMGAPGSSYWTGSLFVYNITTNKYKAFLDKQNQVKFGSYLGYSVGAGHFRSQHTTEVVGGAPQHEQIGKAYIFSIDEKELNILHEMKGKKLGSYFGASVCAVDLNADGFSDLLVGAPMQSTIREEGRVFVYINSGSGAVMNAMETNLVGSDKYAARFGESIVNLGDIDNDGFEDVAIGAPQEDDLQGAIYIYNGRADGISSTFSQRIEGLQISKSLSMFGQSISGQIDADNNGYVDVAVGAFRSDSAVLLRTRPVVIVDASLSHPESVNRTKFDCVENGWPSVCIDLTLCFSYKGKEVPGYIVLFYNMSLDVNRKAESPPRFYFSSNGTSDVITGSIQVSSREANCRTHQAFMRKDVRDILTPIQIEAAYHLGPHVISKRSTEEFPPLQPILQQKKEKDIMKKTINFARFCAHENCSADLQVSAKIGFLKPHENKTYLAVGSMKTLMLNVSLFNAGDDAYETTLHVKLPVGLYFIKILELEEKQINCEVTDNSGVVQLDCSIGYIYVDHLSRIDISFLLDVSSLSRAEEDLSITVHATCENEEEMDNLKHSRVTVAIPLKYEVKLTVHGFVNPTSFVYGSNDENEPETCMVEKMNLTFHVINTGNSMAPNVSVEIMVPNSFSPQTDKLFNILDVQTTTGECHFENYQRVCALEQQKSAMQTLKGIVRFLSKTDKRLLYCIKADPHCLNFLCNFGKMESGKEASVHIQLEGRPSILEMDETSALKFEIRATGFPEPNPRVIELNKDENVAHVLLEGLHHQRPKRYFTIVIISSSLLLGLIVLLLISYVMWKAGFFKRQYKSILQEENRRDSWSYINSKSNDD

[6] = biological target: Integrin alpha-L/beta-2 (LFA-1) (Homo sapiens, UniProt P05107+P20701); test: Antagonist activity at alphaLbeta2 integrin in human Jurkat E6.1 cells assessed as inhibition of ICAM1-mediated cell adhesion after 30 mins by fluorescence assay
Integrin alpha-L/beta-2 (LFA-1), sequence (P20701 whole entry): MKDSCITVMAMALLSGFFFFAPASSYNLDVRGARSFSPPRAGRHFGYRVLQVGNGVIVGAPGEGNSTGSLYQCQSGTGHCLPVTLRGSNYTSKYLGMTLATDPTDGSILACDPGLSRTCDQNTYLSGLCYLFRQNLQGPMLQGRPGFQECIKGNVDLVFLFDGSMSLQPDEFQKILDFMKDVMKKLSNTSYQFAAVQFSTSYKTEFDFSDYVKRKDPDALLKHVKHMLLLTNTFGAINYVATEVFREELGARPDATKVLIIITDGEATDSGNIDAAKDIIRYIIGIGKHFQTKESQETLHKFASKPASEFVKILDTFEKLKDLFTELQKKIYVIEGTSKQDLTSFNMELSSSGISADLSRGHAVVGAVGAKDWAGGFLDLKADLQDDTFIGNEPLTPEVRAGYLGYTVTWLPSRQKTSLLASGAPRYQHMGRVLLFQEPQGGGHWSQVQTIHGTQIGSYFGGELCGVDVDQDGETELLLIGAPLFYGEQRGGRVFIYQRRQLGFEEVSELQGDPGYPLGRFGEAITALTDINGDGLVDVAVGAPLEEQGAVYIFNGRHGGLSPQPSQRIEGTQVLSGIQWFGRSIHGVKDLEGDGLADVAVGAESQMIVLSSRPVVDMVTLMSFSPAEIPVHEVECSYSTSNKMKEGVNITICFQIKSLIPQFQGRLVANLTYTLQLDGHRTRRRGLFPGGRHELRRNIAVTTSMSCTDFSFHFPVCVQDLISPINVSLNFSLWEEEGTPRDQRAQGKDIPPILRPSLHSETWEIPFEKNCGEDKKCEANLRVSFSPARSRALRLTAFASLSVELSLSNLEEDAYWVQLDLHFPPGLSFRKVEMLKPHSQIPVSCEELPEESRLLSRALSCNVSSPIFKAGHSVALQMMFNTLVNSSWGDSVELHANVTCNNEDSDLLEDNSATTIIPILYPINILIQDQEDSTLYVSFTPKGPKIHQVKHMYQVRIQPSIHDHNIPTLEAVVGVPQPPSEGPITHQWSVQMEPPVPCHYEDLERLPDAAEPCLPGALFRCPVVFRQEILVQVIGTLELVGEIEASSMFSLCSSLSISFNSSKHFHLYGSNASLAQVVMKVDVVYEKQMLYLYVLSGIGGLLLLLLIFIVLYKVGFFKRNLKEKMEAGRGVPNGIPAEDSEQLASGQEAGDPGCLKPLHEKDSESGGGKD
Integrin alpha-L/beta-2 (LFA-1), sequence (P05107 whole entry): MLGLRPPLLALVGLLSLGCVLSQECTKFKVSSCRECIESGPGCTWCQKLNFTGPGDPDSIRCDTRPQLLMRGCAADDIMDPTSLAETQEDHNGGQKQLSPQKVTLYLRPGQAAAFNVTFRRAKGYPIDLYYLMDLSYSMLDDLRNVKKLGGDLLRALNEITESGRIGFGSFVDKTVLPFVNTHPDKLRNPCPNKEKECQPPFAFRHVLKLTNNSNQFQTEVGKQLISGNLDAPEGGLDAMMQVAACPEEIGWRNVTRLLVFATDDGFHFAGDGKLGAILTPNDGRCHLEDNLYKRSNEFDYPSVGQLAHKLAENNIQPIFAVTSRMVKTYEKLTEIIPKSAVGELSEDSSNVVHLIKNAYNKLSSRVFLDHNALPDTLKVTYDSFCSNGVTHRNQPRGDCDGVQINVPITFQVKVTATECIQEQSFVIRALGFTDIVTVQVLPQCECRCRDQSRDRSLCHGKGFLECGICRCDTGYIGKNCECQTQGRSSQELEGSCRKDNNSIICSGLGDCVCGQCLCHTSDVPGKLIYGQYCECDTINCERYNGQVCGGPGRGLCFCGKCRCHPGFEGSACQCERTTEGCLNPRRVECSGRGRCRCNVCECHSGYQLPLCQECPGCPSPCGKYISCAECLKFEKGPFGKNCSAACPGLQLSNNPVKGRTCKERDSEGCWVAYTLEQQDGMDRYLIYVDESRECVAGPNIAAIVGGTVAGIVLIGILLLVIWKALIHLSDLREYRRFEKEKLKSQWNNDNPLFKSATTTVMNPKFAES

Integrin alpha-5/beta-1 [7] = biological target: T1, Integrin alpha-5/beta-1; test: Agonist activity at alpha5beta1 integrin in human K562 cells assessed as increase of cell adhesion after 30 mins by fluorescence assay
Integrin alpha-V/beta-3 [8] = biological target: T2, Integrin alpha-V/beta-3; test: Agonist activity at alphavbeta3 integrin in human SK-MEL-24 cells assessed as increase of cell adhesion after 30 mins by fluorescence assay

Structure (SMILES) | Activity (Integrin alpha-5/beta-1 [1]) | Activity (Integrin alpha-V/beta-3 [2]) | Activity [3] | Activity (Integrin alpha-5/beta-1 [4]) | EC50 (Integrin alpha-5/beta-1 [4]) [nM] | Activity (Integrin alpha-V/beta-3 [5]) | EC50 (Integrin alpha-V/beta-3 [5]) [nM] | Ratio EC50 (K562) | IC50 (Integrin alpha-4/beta-1) [nM] | IC50 [6] [nM] | Activity (Integrin alpha-5/beta-1 [7]) | Activity (Integrin alpha-V/beta-3 [8])
NCc1ccc(NC(=O)N2C(=O)CC2CC(=O)O)cc1 (stereo not drawn) | inactive | inactive | Active | Dose-dependent effect | 12 | Dose-dependent effect | 55 | 5 | ≥ 100000 | ≥ 100000 | Active | Active
NCc1ccc(NC(=O)N2C(=O)CC2CC(=O)NCC(=O)O)cc1 (stereo not drawn) | inactive | inactive | Active | Dose-dependent effect | 763 | Dose-dependent effect | 11 | – | ≥ 100000 | ≥ 100000 | Active | Active
NCc1ccc(NC(=O)N2C(=O)C[C@H]2C(=O)O)cc1 | – | – | – | Dose-dependent effect | 365 | Dose-dependent effect | 10400 | 1000 | – | – | – | –
